# Earlier results in patent publication US9233169B2, “Oligomer-bis-chromonyl compound conjugates” (NEKTAR THERAPEUTICS, priority 2008, dated 2016).
# System: mast cell degranulation
# Conditions: monkey gingiva; Nuki et al. (1975)
smiles,measurement,value
"O=C([O-])c1cc(=O)c2c(OCC(O)COc3cccc4oc(C(=O)[O-])cc(=O)c34)cccc2o1.[Na+].[Na+] [Cromonlyn sodium, disodium 5,5′-((2-hydroxytrimethylene)dioxy)bis(4-oxo-4H-1 benzopyran-2-carboxylate)]",inhibition of mast cell degranulation,inhibit mast cell degranulation
